Source: ChEMBL document CHEMBL5604063, “ASAP - DENV-2 NS2B-NS3 protease fluorescence dose response” (2024)
Values joined by “and” are separate entries in the source; they are usually repeats but may differ in a detail not shown here. Equal entries are not always repeated.

Molecular target: Genome polyprotein (dengue virus type 2, UniProt P29990)
Format: functional, Thailand/16681/1984

Genome polyprotein, sequence (P29990 1346-1475 limits assumed): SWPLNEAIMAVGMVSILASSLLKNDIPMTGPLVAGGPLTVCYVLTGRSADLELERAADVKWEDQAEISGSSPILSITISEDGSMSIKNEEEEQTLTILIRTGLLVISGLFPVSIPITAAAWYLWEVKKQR
Genome polyprotein, sequence (P29990 1476-2093 limits assumed): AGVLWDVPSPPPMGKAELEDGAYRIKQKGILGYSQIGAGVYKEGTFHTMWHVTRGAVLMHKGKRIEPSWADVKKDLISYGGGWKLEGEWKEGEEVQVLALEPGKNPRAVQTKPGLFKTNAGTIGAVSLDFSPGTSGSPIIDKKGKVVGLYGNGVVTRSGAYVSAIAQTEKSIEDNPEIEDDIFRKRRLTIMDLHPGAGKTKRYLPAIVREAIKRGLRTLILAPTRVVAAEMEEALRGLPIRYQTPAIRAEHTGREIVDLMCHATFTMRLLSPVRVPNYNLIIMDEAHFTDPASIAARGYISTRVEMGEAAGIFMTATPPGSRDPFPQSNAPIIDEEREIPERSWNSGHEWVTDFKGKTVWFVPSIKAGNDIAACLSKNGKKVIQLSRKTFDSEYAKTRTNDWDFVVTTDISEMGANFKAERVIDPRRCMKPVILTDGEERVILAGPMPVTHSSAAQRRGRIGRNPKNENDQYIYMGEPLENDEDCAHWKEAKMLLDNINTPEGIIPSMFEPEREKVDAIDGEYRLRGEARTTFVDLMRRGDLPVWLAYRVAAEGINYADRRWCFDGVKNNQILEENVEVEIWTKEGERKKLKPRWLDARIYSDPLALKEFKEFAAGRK

SMILES	IC50
NCc1cccc(NC(=O)[C@@H]2C[C@H](NC(=O)OCc3ccccc3)[C@H]3C[C@H]32)c1	> 99.5 µM
O=C(Nc1cc(Cl)cc(C(=O)Nc2cccc(CO)c2)c1)OCc1ccccc1	> 99.5 µM
CCN1C[C@H]2C[C@@H]1CN2c1nc2ccccc2n(CC)c1=O	> 99.5 µM
Cc1c(C(=O)Nc2cc(CCCN)ccn2)cc(C#N)n1C	> 99.5 µM
CCCCCC(=O)N[C@H](C(=O)NCc1cccc(CN)c1)c1ccc(OCc2ccccc2)cc1	84.6 µM
O=C(O)c1cc(Cl)ccc1S(=O)(=O)N[C@H]1CCN(Cc2ccccc2)C(=O)C1	> 99.5 µM
Cc1cccc([C@@H](NC(=O)OCc2ccccc2)C(=O)Nc2cccc(CN)c2)n1	> 99.5 µM
CC(C)(C)c1cc(N2CCN(c3cccc4[nH]ncc34)CC2)nc(C(=O)O)n1	> 99.5 µM
CN(C)c1ccc(/C=C/C(=O)C(=O)N2CCOCC2)cc1	88.8 µM
N[C@]12CCC[C@](C(=O)NCc3ccc4c(c3)CCNCC4)(CC1)C2	> 99.5 µM
CCn1cc(-c2ccccc2C(C)C)nc(N2CC[C@@H](CO)C2)c1=O	> 99.5 µM
CC1(NS(=O)(=O)c2ccc(Cl)cc2C(=O)O)CCN(c2ccccc2)CC1	> 99.5 µM
NCc1ccc2c(c1)CCC[C@H]2NCc1cc(Cl)cc2c1OCC2	> 99.5 µM
FC(F)(F)c1nnc(COc2cncnc2)s1	> 99.5 µM
c1ccc2c(CN[C@H]3CCc4c([nH]c5ccccc45)C3)n[nH]c2c1	> 99.5 µM
O=C(N[C@@H](C(=O)Nc1ccncc1)c1ccc(OCc2ccccc2)cc1)OCc1ccccc1	> 99.5 µM
COc1ccc(COc2ccc(S(=O)(=O)Nc3ccc(Cl)cc3C(=O)O)cc2)nc1	74.1 µM
CC(=O)N1CCC[C@H]1C(=O)N[C@@H](C(=O)Nc1cccc(CN)c1)c1ccc(OCc2ccccc2)cc1	> 99.5 µM
CN(C)Cc1ccc(N2CCN(Cc3c[nH]c4ccccc34)CC2)nc1	> 99.5 µM
Cc1noc(C)c1-c1ccc([C@@H](NC(=O)OCc2ccccc2)C(=O)Nc2cccc(CN)c2)cc1	> 99.5 µM
Cc1ocnc1COc1ccc(S(=O)(=O)Nc2ccc(Cl)cc2C(=O)O)cc1	> 99.5 µM
O=C(O)[C@@H]1CCCC[C@H]1NS(=O)(=O)c1ccc(Oc2ccccc2Cl)cc1	> 99.5 µM
NCc1cccc(NC(=O)[C@H](NC(=O)CCc2ccccc2)c2ccc(OCc3ccccc3)cc2)c1	14.5 µM and 23.3 µM and 22.9 µM
C[C@@H](NC(=O)C1CCN(c2cccc(C(N)=O)n2)CC1)[C@H]1CCCNC1	> 99.5 µM
CCNC(=O)Nc1cc(Cl)cc(C(=O)Nc2cccc(CN)c2)c1	> 99.5 µM
CCn1c(=O)c(N2C[C@H]3C[C@H]2CS(=O)(=O)C3)nc2ccccc21	> 99.5 µM
O=C(O)c1cc(Cl)c(F)cc1NS(=O)(=O)c1ccc(Oc2ccccc2)cc1	13.1 µM

SMILES	IC50
CC(C)c1nn(C)cc1-c1cc(F)cc(C(=O)Nc2ccc3c(c2)CNC3)c1	> 99.5 µM
NCc1cccc(NC(=O)c2cc(Cl)cc(CN)c2)c1	> 99.5 µM
c1ccc2nc(SCc3cn4ccccc4n3)cnc2c1	> 99.5 µM
NCc1ccc2c(c1)N(C(=O)[C@@H](NC(=O)OCc1ccccc1)c1ccc(OCc3ccccc3)cc1)CC2	> 99.5 µM
NCc1cccc(NC(=O)[C@H](NC(=O)OCc2ccccc2)c2ccc(Br)c(F)c2)c1	88.2 µM
O=C(Cn1ccnc(N2CC[C@H](CO)C2)c1=O)NCc1nccs1	> 99.5 µM
CCn1c(=O)c(N2CCC[C@H]2CN2CCCC2)nc2ccccc21	> 99.5 µM
O=Cc1ccc(N2CCC(C(=O)Nc3ncc(Br)cc3O)CC2)cc1	19.1 µM
CCn1cc(-c2ccc3ocnc3c2)nc(N2CC[C@@H](CO)C2)c1=O	> 99.5 µM
c1cncc(N2CCCN(Cc3c[nH]c4ccccc34)CC2)c1	> 99.5 µM
CN(C)Cc1cc(NC(=O)c2cc(Cl)cc(NC(=O)OCc3ccccc3)c2)sn1	> 99.5 µM
C=CC[C@H](Nc1cc([C@H]2CCOC2)ccn1)c1cc(C2CC2)n(C)n1	> 99.5 µM
CC[C@H]1CN2CCC[C@H]2CN1c1nc2ccccc2n(CC)c1=O	> 99.5 µM
Cc1cnn(-c2cccc(-c3cccc(C4(CN)CC4)c3)c2)c1	> 99.5 µM
COc1ccc(NS(=O)(=O)c2ccc(Cl)cc2C(=O)O)cc1S(=O)(=O)N1CCCC1	> 99.5 µM
O=c1[nH]c2cccc(N3CCN(Cc4c[nH]c5ccccc45)CC3)c2[nH]1	> 99.5 µM
c1ccc2sc(C3CCN([C@H]4Cc5[nH]c6ccccc6c5C4)CC3)nc2c1	> 99.5 µM
CC1=NN(c2ccc(NS(=O)(=O)c3ccc(Cl)cc3C(=O)O)cn2)C(=O)C1	> 99.5 µM
NCc1cccc(NC(=O)C[C@H](NC(=O)OCc2ccccc2)c2ccc(C(F)(F)F)cc2)c1	58.1 µM
NCc1cccc(NC(=O)[C@@H](NC(=O)OCc2ccccc2)c2ccc(-c3ccnc4[nH]ccc34)cc2)c1	> 99.5 µM
Cc1cccc(-c2nc3c(C(=O)Nc4ccc5c(c4)CNC5)cc(F)cc3[nH]2)c1	8.87 µM and 6.46 µM
C[C@@H](Oc1ccc(S(=O)(=O)Nc2ccc(Cl)cc2C(=O)O)cc1)c1ccccc1F	8.2 µM
O=C(Nc1cc(Cl)cc(C(=O)Nc2n[nH]c3c2CNC32CC2)c1)OCc1ccccc1	67.8 µM
O=S(=O)(c1cccs1)N1CCN(CC=Cc2ccccc2)CC1	> 99.5 µM
CCn1ccnc(N2CC[C@H](c3ccc(C#N)cc3)C2)c1=O	> 99.5 µM
Cc1nnnn1Cc1ncc(Br)s1	> 99.5 µM
COC(=O)c1cc(Cl)ccc1NS(=O)(=O)c1ccc(Oc2ccccc2Cl)nc1	> 99.5 µM

SMILES	IC50
COC(=O)c1cc(Cl)ccc1NS(=O)(=O)c1ccc(Cl)nc1	> 99.5 µM
COC(=O)c1cc(Cl)ccc1NS(=O)(=O)c1ccc(Oc2ccccc2Cl)cc1	> 99.5 µM
c1cc(C2CCN(Cc3c[nH]c4ccccc34)CC2)c2ccncc2c1	> 99.5 µM
Brc1ccsc1CSc1cnn[nH]1	> 99.5 µM
FC1(c2cccnc2)CN(Cc2c[nH]c3ccccc23)C1	> 99.5 µM
CCn1c(=O)c(N2CC[C@@H](Cc3ccncc3)C2)nc2ccccc21	> 99.5 µM
CCCC[C@H](NC(C)=O)C(=O)N[C@H](C(=O)NCc1ccc(CN)cc1)c1ccccc1	> 99.5 µM
NCc1cccc(NC(=O)[C@H]2[C@H]3CCC[C@H]3[C@@H]2NC(=O)OCc2ccccc2)c1	> 99.5 µM
CSC1(C(=O)N[C@H](CC(=O)Nc2cccc(CN)c2)c2ccc(OCc3ccccc3)c(Br)c2)CCC1	34.9 µM
NCCc1cccc(NC(=O)c2cc(Cl)cc(NC(=O)OCc3ccccc3)c2)c1	49.7 µM and 44 µM
CC(C)Oc1ccc(S(=O)(=O)Nc2ccc(Cl)cc2C(=O)O)cc1	> 99.5 µM
CCn1cc(C(=O)N2CCN(C)CC2)nc(N2CC[C@@H](CO)C2)c1=O	> 99.5 µM
CCn1c(=O)c(N2CC[C@H](NC(=O)NC3CC3)C2)nc2ccccc21	> 99.5 µM
N[C@@H](Cc1c[nH]cn1)C(=O)N1CCC2(CC1)OCCc1cc(O)ccc12	> 99.5 µM
O=C(O)c1cc(Cl)ccc1S(=O)(=O)NC1CCN(S(=O)(=O)c2cccs2)CC1	> 99.5 µM
NCc1ccnc(CNC(=O)[C@@H](NC(=O)OCc2ccccc2)c2ccc(OCc3ccccc3)cc2)c1	> 99.5 µM
NCc1ccc(NC(=O)c2cc(Cl)cc(NC(=O)OCc3ccccc3)c2)cc1	51.5 µM
Cc1cc(N2CCCCC2)ccc1NS(=O)(=O)c1ccc(Cl)cc1C(=O)O	> 99.5 µM
OC[C@H]1CCN(c2cnc3ccccc3n2)C1	> 99.5 µM
O=C(c1cccnc1)N1CCN(Cc2c[nH]c3ccccc23)CC1	> 99.5 µM
O=S(=O)(Nc1ccc(Oc2ccccc2Cl)cc1)c1c[nH]c2ccc(Cl)cc12	> 99.5 µM
CNC(=O)c1cc(Cl)ccc1NS(=O)(=O)c1cccc(Oc2ccccc2)c1	> 99.5 µM
CCn1ccnc(N2CC[C@@H](CC#N)C2)c1=O	> 99.5 µM
O=C(NCc1cc(Cl)ccc1NS(=O)(=O)c1ccc(Oc2ccccc2Cl)cc1)C1CC1	> 99.5 µM
O=C(C(=O)N1CCOCC1)c1c[nH]c2ccccc12	> 99.5 µM
Cn1ccc(CS(=O)(=O)N[C@@H](C(=O)Nc2cccc(CN)c2)c2ccc(OCc3ccccc3)cc2)n1	> 99.5 µM
COc1cc(NC(=O)OCc2ccccc2)cc(C(=O)Nc2cccc(CN)c2)c1	> 99.5 µM

SMILES	IC50
CCn1c(=O)c(N2C[C@@H]3CN(C4CCC4)C[C@@H]3C2)nc2ccccc21	> 99.5 µM
NCc1cccc(NC(=O)[C@@H]2CCC[C@@H](NC(=O)OCc3ccccc3)C2)c1	> 99.5 µM
COc1cc(Cl)cc(C(=O)O)c1NS(=O)(=O)c1ccc(Oc2ccccc2Cl)cc1	22.6 µM
CCn1cc(-c2cc(F)ccc2C)nc(N2CC[C@@H](CO)C2)c1=O	> 99.5 µM
NCc1ccc(Oc2ccc(S(=O)(=O)Nc3ccc(Cl)cc3C(=O)O)cc2)cc1	> 99.5 µM
O=C(O)c1c(F)cc(F)cc1NS(=O)(=O)c1ccc(Oc2ccccc2Cl)cc1	41.5 µM
NS(=O)(=O)c1cc(F)c(Cl)cc1N1CCN(c2ccnc(O)c2)CC1	> 99.5 µM
O=C(N[C@H](C(=O)NCc1ccc(F)cc1)c1ccc(OCc2ccccc2)cc1)OCc1ccccc1	> 99.5 µM
O=C(O)c1cc(Cl)ccc1S(=O)(=O)Nc1ccc(N2CCCCC2)c(Cl)c1	71.6 µM
COc1cc(C(=O)Nc2ccc3c(c2)CNC3)cc2ccoc12	> 99.5 µM
CCn1cc(C(=O)Nc2ccccc2)nc(N2CC[C@@H](CO)C2)c1=O	> 99.5 µM
Cn1cc(CN2CCC(c3c[nH]c4cccnc34)CC2)c2ccccc21	> 99.5 µM
CC[C@H](C#N)NC(=O)c1cc(Cl)ccc1NS(=O)(=O)c1ccc(Oc2ccccc2Cl)cc1	42.4 µM
Cn1nc(NC(=O)[C@@H](NC(=O)OCc2ccccc2)c2ccc(OCc3ccccc3)cc2)c2c1CNC2	> 99.5 µM
O=C(Nc1ccccc1)OCc1ccccc1 [BENZYL PHENYLCARBAMATE]	> 99.5 µM
NC(=O)c1cn(C[C@H]2CCCN2c2ccnc3ccccc23)nn1	> 99.5 µM
NS(=O)(=O)c1cccc(-c2ccc(S(=O)(=O)Nc3ccc(Cl)cc3C(=O)O)cc2)c1	30.6 µM
CC(C)(C)OC(=O)Nc1cccc2[nH]cc(CN3CCC(c4cscn4)CC3)c12	> 99.5 µM
Cc1c(C(=O)Nc2cccc(-c3cncnc3O)c2)cc(C2CC2)n1C	> 99.5 µM
O=C(Nc1ccc(F)nc1)Oc1ccccc1	> 59.8 µM
O=C(N[C@@H](C(=O)NCc1cccc(CN2CCCCC2)c1)c1ccc(OCc2ccccc2)cc1)OCc1ccccc1	> 99.5 µM
COc1ccc(N2CCC(NS(=O)(=O)c3ccc(Cl)cc3C(=O)O)CC2)cc1	> 99.5 µM
N#Cc1cccc2c(CN3CCC(c4cscn4)CC3)c[nH]c12	> 99.5 µM
O=C(N[C@H]1CCNC1=O)c1cc(Cl)ccc1NS(=O)(=O)c1ccc(Oc2ccccc2Cl)cc1	87.3 µM
